Tests used:
human APJ receptor = human APJ receptor (Homo sapiens (Human), UniProt P35414); experiment: biochemical; assay type: biochemical; conditions: read-out: Activity hAPJ SPA EC50 IP
Outline: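 Membranes from CHO cells stably expressing cloned human APJ were incubated with WGA SPA beads in 20 mM HEPES pH 7.5, 5 mM MgCl2, 0.1% BSA, 200 mM NaCl and 3 μM GDP. Reaction started with 0.2 nM [35S]GTPγS ± ligands, 90 min at RT. EC50 obtained by non-linear regression as mean of independent experiments.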

[1] = tested on: isolated perfused rat hearts; experiment: Load independent inotropic effects, ex vivo assay (isolated perfused rat hearts, Langendorff); conditions: percent change over vehicle
Text: Evidence for Load Independent Inotropic Effects with APJ Agonists using Ex Vivo Assay (Isolated Perfused Rat Hearts)
Naive Sprague Dawley® SD rats (Harlan laboratories (Livermore, Calif. USA)) were anesthetized and hearts were excised followed by cannulation in the Langendorff apparatus (Harvard apparatus, Holliston, Mass. USA) via aorta. […] The pressure of the solution causes the aortic valve to shut and the perfusate is then forced into the ostium and the coronary vessels. This allows the heart to beat for several h. A balloon was inserted into the left ventricle (LV) to measure dP/dtmax (derivative of left ventricular pressure) as an index of cardiac contractility. The APJ agonist was perfused constantly in a dose dependent manner into the heart to examine cardiac contractility.

heart failure rat model = experiment: Cardiac contractility in vivo in heart failure rat model (MI rat model); conditions: for cardiac contractility as measured by dP/dtmax (derivative of left ventricular pressure): male Lewis rats, heart failure by ligation of left descending coronary artery, ejection fraction <35%, dosed acutely for 30 min
Experimental: Male Lewis rats (Charles River, USA) at 2-3 months of age were used for the study. […] APJ agonists were administered dose dependently acutely for a period of 30 min.

[2] = tested on: isolated perfused rat hearts; experiment: Langendorff isolated perfused rat heart (left ventricular dP/dt); conditions: ex vivo naive Sprague Dawley rat hearts, Langendorff apparatus, as a function of concentration

Chain of human APJ receptor (P35414 whole entry): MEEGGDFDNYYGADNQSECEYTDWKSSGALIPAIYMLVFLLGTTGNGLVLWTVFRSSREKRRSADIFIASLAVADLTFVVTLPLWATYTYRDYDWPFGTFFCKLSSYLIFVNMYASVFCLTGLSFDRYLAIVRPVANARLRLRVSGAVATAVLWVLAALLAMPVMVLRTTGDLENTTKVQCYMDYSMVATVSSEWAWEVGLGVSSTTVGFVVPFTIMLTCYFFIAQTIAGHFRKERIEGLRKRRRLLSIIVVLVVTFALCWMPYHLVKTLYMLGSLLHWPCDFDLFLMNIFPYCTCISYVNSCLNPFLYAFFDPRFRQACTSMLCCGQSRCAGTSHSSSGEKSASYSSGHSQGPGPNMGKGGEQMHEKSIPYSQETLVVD

For `COc1cccc(OC)c1-n1c(NS(=O)(=O)[C@H](C)[C@@H](OC)c2ccc(Cl)cn2)nnc1-c1cccnc1` (single isomer, unassigned) [Example 531.0, (1S,2R)-1-(5-chloro-2-pyridinyl)-N-(4-(2,6-dimethoxyphenyl)-5-(3-pyridinyl)-4H-1,2,4-triazol-3-yl)-1-methoxy-2-propanesulfonamide or (1R,2S)-1-(5-chloro-2-pyridinyl)-N-(4-(2,6-dimethoxyphenyl)-5-(3-pyridinyl)-4H-1,2,4-triazol-3-yl)-1-methoxy-2-propanesulfonamide], the EC50 (human APJ receptor) was 0.2 nM, the “Isolated Heart Assay dP/dtmax (%)” value [1] was 4.1% and the “Isolated Heart Assay dP/dtmin (%)” value [1] was 1.9%.

`COc1cccc(OC)c1-n1c(NS(=O)(=O)[C@H](C)[C@@H](OC)c2ncc(Cl)cn2)nnc1-c1cncc(C)c1` (single isomer, unassigned) [Example 557.0] was tested, and the EC50 (human APJ receptor) was 0.31 nM, the “Isolated Heart Assay dP/dtmax (%)” value [1] was 17.0% and the “Isolated Heart Assay dP/dtmin (%)” value [1] was 20.0%. For the same compound, the “MI Rat Model dP/dtmax (%)” value (heart failure rat model; in vivo, heart failure (MI) rat model, acute administration for 30 min) was “No effect”.

In the case of `COc1cccc(OC)c1-n1c(NS(=O)(=O)[C@@H](C)[C@H](O)c2ncc(C)cn2)nnc1-c1cccc(C)n1` [Example 99.0, (1R,2S)-N-(4-(2,6-dimethoxyphenyl)-5-(6-methylpyridin-2-yl)-4H-1,2,4-triazol-3-yl)-1-hydroxy-1-(5-methylpyrimidin-2-yl)propane-2-sulfonamide], the “left ventricular dP/dtmax (load independent cardiac contractility)” value (from here on “left ventricular dP/dtmax”) [2] is reported as “increases load independent cardiac contractility”, the “left ventricular dP/dtmin (load independent cardiac relaxation)” value (from here on “left ventricular dP/dtmin”) [2] is reported as “increases load independent cardiac relaxation” and the EC50 (human APJ receptor) is reported as 2.3 nM. The “cardiac contractility as measured by dP/dtmax (derivative of left ventricular pressure)” value (shortened to “cardiac contractility as measured”) (heart failure rat model) was “increase in cardiac contractility”.

For `COc1cccc(OC)c1-n1c(NS(=O)(=O)[C@@H](C)[C@H](C)c2ncc(C)cn2)nnc1-c1cncc(C)c1` [Example 263.0, (2S,3R)—N-(4-(2,6-dimethoxyphenyl)-5-(5-methylpyridin-3-yl)-4H-1,2,4-triazol-3-yl)-3-(5-methylpyrimidin-2-yl)butane-2-sulfonamide], the “left ventricular dP/dtmax” value [2] was “increases load independent cardiac contractility”, the “left ventricular dP/dtmin” value [2] was “increases load independent cardiac relaxation” and the “cardiac contractility as measured” value (heart failure rat model) was “increase in cardiac contractility”.

`COc1cccc(OC)c1-n1c(NS(=O)(=O)[C@@H](C)[C@H](O)c2ncc(C)cn2)nnc1-c1cncc(C)c1` [Example 371.0, (1R,2S)—N-(4-(2,6-dimethoxyphenyl)-5-(5-methylpyridin-3-yl)-4H-1,2,4-triazol-3-yl)-1-hydroxy-1-(5-methylpyrimidin-2-yl)propane-2-sulfonamide] was tested, and the “left ventricular dP/dtmax” value [2] was “increases load independent cardiac contractility” and the “left ventricular dP/dtmin” value [2] was “increases load independent cardiac relaxation”.

`COc1cccc(OC)c1-n1c(NS(=O)(=O)[C@@H](C)[C@H](C)c2ncc(C)cn2)nnc1-c1cccnc1` [Example 586.0, (2S,3R)—N-(4-(2,6-dimethoxyphenyl)-5-(3-pyridinyl)-4H-1,2,4-triazol-3-yl)-3-(5-methyl-2-pyrimidinyl)-2-butanesulfonamide] was tested, and the “left ventricular dP/dtmax” value [2] was “increases load independent cardiac contractility”, the “left ventricular dP/dtmin” value [2] was “increases load independent cardiac relaxation” and the EC50 (human APJ receptor) was 0.3 nM. For the same compound, the “cardiac contractility as measured” value (heart failure rat model) was “increase in cardiac contractility”.

Work on `C[C@H](c1ccc(Cl)cn1)[C@H](C)S(=O)(=O)Nc1nnc(-c2cccnc2)n1-c1c(O)nc[nH]c1=O` [Example 810.0, (2S,3R)-3-(5-chloro-2-pyridinyl)-N-(4-(4-hydroxy-6-oxo-1,6-dihydro-5-pyrimidinyl)-5-(3-pyridinyl)-4H-1,2,4-triazol-3-yl)-2-butanesulfonamide] yielded an EC50 (human APJ receptor) of 770 nM.

For `Cc1cnc([C@@H](C)[C@H](C)S(=O)(=O)Nc2nnc(-c3cncc(C)c3)n2-c2c(F)cccc2F)nc1` [Example 826.0, (2S,3R)-N-(4-(2,6-difluorophenyl)-5-(5-methyl-3-pyridinyl)-4H-1,2,4-triazol-3-yl)-3-(5-methyl-2-pyrimidinyl)-2-butanesulfonamide, (2R,3S)-N-(4-(2,6-difluorophenyl)-5-(5-methyl-3-pyridinyl)-4H-1,2,4-triazol-3-yl)-3-(5-methyl-2-pyrimidinyl)-2-butanesulfonamide], the “Isolated Heart Assay dP/dtmax (%)” value [1] was 6.02% and the “Isolated Heart Assay dP/dtmin (%)” value [1] was 5.16%.

In the case of `COc1ncnc(OC)c1-n1c(NS(=O)(=O)[C@@H](C)[C@@H](OC(C)C)c2ncc(C)cn2)nnc1-c1cncc(C)c1` [Example 829.0, (1S,2S)-N-(4-(4,6-dimethoxy-5-pyrimidinyl)-5-(5-methyl-3-pyridinyl)-4H-1,2,4-triazol-3-yl)-1-(1-methylethoxy)-1-(5-methyl-2-pyrimidinyl)-2-propanesulfonamide], the EC50 (human APJ receptor) is reported as 9.5 nM.

Compound `COc1cccc(-c2nnc(NS(=O)(=O)[C@@H]3CCCN(c4ncc(Cl)cn4)C3)n2-c2c(OC)ncnc2OC)n1` [Example 831.0, (3R)-1-(5-chloro-2-pyrimidinyl)-N-(4-(4,6-dimethoxy-5-pyrimidinyl)-5-(6-methoxy-2-pyridinyl)-4H-1,2,4-triazol-3-yl)-3-piperidinesulfonamide, (3S)-1-(5-chloro-2-pyrimidinyl)-N-(4-(4,6-dimethoxy-5-pyrimidinyl)-5-(6-methoxy-2-pyridinyl)-4H-1,2,4-triazol-3-yl)-3-piperidinesulfonamide] has an EC50 (human APJ receptor) of 0.89 nM.

Work on `COc1cccc(-c2nnc(NS(=O)(=O)CC3CC3)n2-c2c(OC)cccc2OC)n1` [Example 832.0, 1-cyclopropyl-N-(4-(2,6-dimethoxyphenyl)-5-(6-methoxy-2-pyridinyl)-4H-1,2,4-triazol-3-yl)methanesulfonamide] yielded an EC50 (human APJ receptor) of 110 nM.

Compound `COc1cccc(-c2nnc(NS(=O)(=O)[C@@H](C)[C@H](C)c3ncc(Cl)cn3)n2C2CCOCC2)n1` [Example 835.0, (2S,3R)-3-(5-chloro-2-pyrimidinyl)-N-(5-(6-methoxy-2-pyridinyl)-4-(tetrahydro-2H-pyran-4-yl)-4H-1,2,4-triazol-3-yl)-2-butanesulfonamide] has an EC50 (human APJ receptor) of 13 nM.

`COc1cccc(-c2nnc(NS(=O)(=O)[C@@H](C)[C@H](OC)c3ncc(Cl)cn3)n2C2CCOCC2)n1` [Example 836.0, (1R,2S)-1-(5-chloro-2-pyrimidinyl)-1-methoxy-N-(5-(6-methoxy-2-pyridinyl)-4-(tetrahydro-2H-pyran-4-yl)-4H-1,2,4-triazol-3-yl)-2-propanesulfonamide] was tested, and the EC50 (human APJ receptor) was 2.9 nM.

In the case of `COc1cccc(-c2nnc(NS(=O)(=O)[C@@H](C)[C@@H](OC(C)C)c3ncc(C)cn3)n2C2CCOCC2)n1` [Example 837.0, (1S,2S)-N-(5-(6-methoxy-2-pyridinyl)-4-(tetrahydro-2H-pyran-4-yl)-4H-1,2,4-triazol-3-yl)-1-(1-methylethoxy)-1-(5-methyl-2-pyrimidinyl)-2-propanesulfonamide], the EC50 (human APJ receptor) is reported as 5.1 nM.

In the case of `COc1cccc(-c2nnc(NS(=O)(=O)[C@@H](C)[C@H](C)c3ccc(Cl)cn3)n2C2CCOCC2)n1` [Example 840.0, (2S,3R)-3-(5-chloro-2-pyridinyl)-N-(5-(6-methoxy-2-pyridinyl)-4-(tetrahydro-2H-pyran-4-yl)-4H-1,2,4-triazol-3-yl)-2-butanesulfonamide], the EC50 (human APJ receptor) is reported as 13 nM.

`COc1cccc(-c2nnc(NS(=O)(=O)[C@@H](C)[C@H](OC)c3ccc(Cl)cn3)n2C2CCOCC2)n1` [Example 841.0, (1R,2S)-1-(5-chloro-2-pyridinyl)-1-methoxy-N-(5-(6-methoxy-2-pyridinyl)-4-(tetrahydro-2H-pyran-4-yl)-4H-1,2,4-triazol-3-yl)-2-propanesulfonamide] gave an EC50 (human APJ receptor) of 8.6 nM.

`COc1cnc([C@@H](C)[C@H](C)S(=O)(=O)Nc2nnc(-c3cccc(OC)n3)n2C2CCOCC2)nc1` [Example 842.0, (2S,3R)-N-(5-(6-methoxy-2-pyridinyl)-4-(tetrahydro-2H-pyran-4-yl)-4H-1,2,4-triazol-3-yl)-3-(5-methoxy-2-pyrimidinyl)-2-butanesulfonamide] was tested, and the EC50 (human APJ receptor) was 140 nM.

Work on `COc1cccc(-c2nnc(NS(=O)(=O)[C@@H](C)[C@H](C)c3cnc(C)cn3)n2C2CCOCC2)n1` [Example 843.0, (2S,3R)-N-(5-(6-methoxy-2-pyridinyl)-4-(tetrahydro-2H-pyran-4-yl)-4H-1,2,4-triazol-3-yl)-3-(5-methyl-2-pyrazinyl)-2-butanesulfonamide] yielded an EC50 (human APJ receptor) of 970 nM.

`COc1cnc([C@@H](C)[C@H](C)S(=O)(=O)Nc2nnc(-c3cccc(OC)n3)n2C2CCOCC2)cn1` [Example 844.0, (2S,3R)-3-(5-methoxy-2-pyrazinyl)-N-(5-(6-methoxy-2-pyridinyl)-4-(tetrahydro-2H-pyran-4-yl)-4H-1,2,4-triazol-3-yl)-2-butanesulfonamide] showed an EC50 (human APJ receptor) of 86 nM.

With “(2S)-N-(4-(2,6-dimethoxyphenyl)-5-(5-methoxy-2-pyridinyl)-4H-1,2,4-triazol-3-yl)-1-(5-fluoro-2-pyrimidinyl)-2-propanesulfonamide and (2R)-N-(4-(2,6-dimethoxyphenyl)-5-(5-methoxy-2-pyridinyl)-4H-1,2,4-triazol-3-yl)-1-(5-fluoro-2-pyrimidinyl)-2-propanesulfonamide [Example 153.0]” the EC50 (human APJ receptor) was 160 nM.
